Data from patent US3985774A, “Purification of γ-oxo-2-dibenzofuranbutyric acid” (American Home Products Corporation, priority 1972, dated 1976).

Legend:
carragheenin paw edema = carragheenin paw edema test; assay type: in vivo, rat; conditions: rats; for % INHIBITION of edema / EDEMA (results expressed in grams of mercury displaced): 3 h after carragheenin
Experimental: A. Winter, et al., Proc. Soc. Exp. Biol., lll, 544 (1962). […] A. Winter in "Non-Steroidal Anti-inflammatory Drugs", S. Garattine and M. N. G. Dukes, Eds., Excerpta Medica International Congress, Ser. No. 82, 1965, p. 190.
More particularly exemplified a substantial effect for γ-oxo-2-dibenzofuranbutyric acid is demonstrable at oral doses of 200 mg/kg or less in this paw edema test. In this test rats are treated with the test compound one hour before a 1% suspension of carragheenin in saline is injected into the subplantar area of the hind paw of the rat. Results are obtained by measuring the increase in paw volume caused by the resulting edema three hours later by plethysmography in mercury and expressing values as grams of mercury displaced. Control animals receive the vehicle only. The results are expressed as percent inhibition in edematous swelling calculated as [formula] where Δ control is the increase in volume measured in untreated controls and Δ treated is the increase in volume found in the treated animals.
The following table lists the results obtained for both γ-oxo-2-dibenzofuranbutyric acid (l) and its isomer ll.

[1] = antipyretic activity (standard pharmacologic test); conditions: in vivo
Description: (§1) The useful antiinflammatory, analgesic and antipyretic activities of the product of this invention is demonstrable in standard pharmacologic tests, for example, the test described by R. A. Turner in "Screening Method in Pharmacology", Academic Press, New York and London, 1965, pp. 152-163, pp. 100-117 and pp. 298-299, respectively.

[2] = analgesic activity (standard pharmacologic test); conditions: in vivo
Description: as §1

gastrointestinal ulcers = test: ulcerogenic activity in a modification of a known method; assay type: in vivo; conditions: therapeutic dose levels
inflammatory conditions = test: antiinflammatory activity (pharmacologic testing); assay type: in vivo; conditions: for antiinflammatory properties / activity: in vivo
solubility in water = assay type: physicochemical
warm-blooded animals = test: toxicity / tolerance (acute toxicity tests and prolonged administration); conditions: in vivo

Compound: O=C(O)CCC(=O)c1ccc2oc3ccccc3c2c1 [γ-oxo-2-dibenzofuranbutyric acid]
- % INHIBITION of edema (carragheenin paw edema; Experiment A, 50 mg/kg, oral): 37%
- EDEMA (results expressed in grams of mercury displaced) (carragheenin paw edema; Experiment A, 50 mg/kg, oral): 7.7 ± 0.88 grams of mercury displaced
- % INHIBITION of edema (carragheenin paw edema; Experiment A, 100 mg/kg, oral): 54%
- EDEMA (results expressed in grams of mercury displaced) (carragheenin paw edema; Experiment A, 100 mg/kg, oral): 5.7 ± 0.42 grams of mercury displaced
- % INHIBITION of edema (carragheenin paw edema; Experiment A, 200 mg/kg, oral): 78%
- EDEMA (results expressed in grams of mercury displaced) (carragheenin paw edema; Experiment A, 200 mg/kg, oral): 2.7 ± 0.36 grams of mercury displaced
- % INHIBITION of edema (carragheenin paw edema; Experiment C, 100 mg/kg): 60%
- EDEMA (results expressed in grams of mercury displaced) (carragheenin paw edema; Experiment C, 100 mg/kg): 4.8 ± 0.46 grams of mercury displaced
- minimal effective dose (carragheenin paw edema; Rattus norvegicus, oral, read-out: oral dose at which a substantial effect is demonstrable): ≤ 200 mg/kg
- activity compared with isomer ll (Student's t test) (carragheenin paw edema; paw edema test): significantly more active than the isomer ll
- antipyretic activity [1]: possesses analgesic and antipyretic activity
- analgesic activity [2]: possesses analgesic and antipyretic activity
- formation of gastrointestinal ulcers (gastrointestinal ulcers): does not cause formation of gastrointestinal ulcers
- antiinflammatory activity compared with isomer ll (inflammatory conditions; acid l versus isomer ll): somewhat more active
- onset of action compared with isomer ll (inflammatory conditions; acid l versus isomer ll): quicker onset of action
- antiinflammatory properties / activity (inflammatory conditions): important antiinflammatory properties
- antiinflammatory properties / activity (inflammatory conditions; listed as acid l): have antiinflammatory activity
- solubility in water (solubility in water): only limited solubility in water
- side effects (warm-blooded animals): lack of side effects
- therapeutic index (warm-blooded animals): highly favorable therapeutic index
- tolerance (warm-blooded animals): exceptionally well tolerated
- toxicity (warm-blooded animals): low order of toxicity

Compound: O=C(O)CCC(=O)c1ccc2c(c1)oc1ccccc12 [γ-oxo-3-dibenzofuranbutyric acid]
- % INHIBITION of edema (carragheenin paw edema; Experiment B, 100 mg/kg): 5%
- EDEMA (results expressed in grams of mercury displaced) (carragheenin paw edema; Experiment B, 100 mg/kg): 13.6 ± 1.38 grams of mercury displaced
- % INHIBITION of edema (carragheenin paw edema; Experiment B, 200 mg/kg): 34%
- EDEMA (results expressed in grams of mercury displaced) (carragheenin paw edema; Experiment B, 200 mg/kg): 9.5 ± 1.11 grams of mercury displaced
- % INHIBITION of edema (carragheenin paw edema; Experiment B, 400 mg/kg): 28%
- EDEMA (results expressed in grams of mercury displaced) (carragheenin paw edema; Experiment B, 400 mg/kg): 10.3 ± 1.05 grams of mercury displaced
- % INHIBITION of edema (carragheenin paw edema; Experiment C, 100 mg/kg): 18%
- EDEMA (results expressed in grams of mercury displaced) (carragheenin paw edema; Experiment C, 100 mg/kg): 9.9 ± 0.67 grams of mercury displaced
- antiinflammatory properties / activity (inflammatory conditions): have antiinflammatory activity
